Laboratory results reported in patent US6086915A, “Compositions and methods of adjusting steroid hormone metabolism through phytochemicals” (priority 1998, dated 2000).
In brackets after ≈: the same amount, converted by molar mass. Entries after “also recorded” stand apart in the source; their conditions may differ. Read-outs that look alike come from different tables or passages of the source. Blank lines part the entries; values can stand above or below the compound they belong to.

What was measured:
[1] = an hour after oral dose of I3C; cited from earlier work
hepatic enzyme = conditions: one mg/kg of DIM in corn oil, fed; cited from earlier work
Human Cancer Cells = conditions: cell culture; cited from earlier work
CYP 1A1/1A2 and 1B1 = experiment: Example 10: immunoblot of CYP enzyme induction in uterine and hepatic microsomes after feeding; assay type: in vivo, Sprague-Dawley female rats
Experimental: CYP enzyme induction was again used as a bio-marker of bioavailability.
The study compared the enzyme induction resulting from exposure of female rats to crystalline DIM, I3C and processed DIM at relevant doses in the feed. Levels of CYP 1A1/1A2 and 1B1 were measured in uterine and hepatic microsomes as a surrogate end point of uptake and bioavailability.
A total of 30 Sprague-Dawley female rats weighing approximately 200 gms were treated as follows:
1. 5-7 day acclimatization in group cages, feeding on AIN76A minimally inducing diet.
2. 3 days feeding on same feed mixed with 7 different combinations of dietary indoles.
3. Sacrifice of animals on about day 10. Harvesting of livers and uteri following perfusion of abdominal organs to remove blood.
4. Processing of organs to obtain CYP enzyme rich microsomal fraction.
5. Immunoblot determination of levels of specific CYP enzymes by standard means using existing CYP antibodies.
Microsomes from the following groups were assayed:
Organ weight was obtained at necropsy. Specific CYP enzyme levels were compared based on standardized densitometry units. […] Results expressed as densitometry units indicating uptake of indole and degree of enzyme induction are listed according to the above groups: […]

[2] = DIM stability in simulated gastric environment and shelf-life conditions; assay type: physicochemical
Text: Therefore the need exists for a bioavailable formulation of DIM as well as related dimers and trimers, since hydrophobic substances like DIM are poorly absorbed.

[3] = system: hepatic microsomal metabolism of estrogen; conditions: cited from earlier work
p-glycoprotein = conditions: cited from earlier work
cultured liver cells = conditions: added directly to cultured liver cells; cited from earlier work
[4] = system: CYP enzymes in colonic epithelium; conditions: in diet, mixed with feed; cited from earlier work
[5] = system: total cytochrome (CYP) enzymes; experiment: Example 9: total CYP in liver microsomes of rats fed crystalline or processed DIM (Western Blots); assay type: in vivo, Sprague Dawley rats; conditions: males; 100 mg per kg gavage, 3 consecutive days
[6] = solubility in water and in oil; assay type: physicochemical
[7] = system: 2-hydroxylation of estradiol; conditions: animals; cited from earlier work
[8] = cited from earlier work
CYP 1A1/1A2 [9] = conditions: rats fed I3C; cited from earlier work
[10] = system: 2-hydroxylation of estradiol; conditions: cited from earlier work; for shift of estrogen metabolism: I3C, oral
CYP 1A1/1A2 [11] = conditions: mice fed I3C; cited from earlier work
CYP = conditions: cited from earlier work
[12] = oil, organic solvent or mixture, read-out: solubility in oil
[13] = water, read-out: solubility in water

SMILES: c1ccc2c(Cc3[nH]c4ccccc4c3Cc3c[nH]c4ccccc34)c[nH]c2c1 [2,3-bis[3-indolylmethyl]indole]
detection in gastric contents and stomach tissue [1]: detected in gastric contents and stomach tissue

CYP enzyme induction, Densitometry Units (CYP 1A1/1A2 and 1B1; DIM high 10 mg/kg/day, crystalline, in feed 3 days): 0 Densitometry Units
CYP enzyme induction, Densitometry Units (CYP 1A1/1A2 and 1B1; DIM low 2 mg/kg/day, crystalline, in feed 3 days): 0 Densitometry Units
shelf stability ([2]; accelerated shelf-life conditions): shelf stable
indolocarbazole generation ([2]; digestion, gastric acid, or accelerated shelf-life conditions): No indolocarbazole is generated
stability during passage through a simulated gastric environment ([2]; simulated gastric environment): entirely stable
Total CYP (nmol/mg protein), Percent of Control [5]: 140%
solubility [6, 12]: 100 µg/mL (≈ 406 µM)
solubility [6, 13]: 2.5 µg/mL (≈ 10.1 µM)
SMILES: c1ccc2c(Cc3c[nH]c4ccccc34)c[nH]c2c1 [DIM, 3,3'-diindolylmethane]
hepatic enzyme induction (hepatic enzyme): no hepatic enzyme induction
apoptosis (Human Cancer Cells): able to support the cancer preventive behavior of apoptosis
dose below which activity is lost ([3]; DIM in the diet / in sesame oil): below 5 mg per kg
potency in influencing estrogen metabolism, DIM over I3C ([3]; fed to rats): increased potency of DIM over I3C
lowest dose with enzyme inductive effects ([3]; injected intraperitoneally): 0.3 mg per kg
p-glycoprotein function (p-glycoprotein; cell culture and in vivo): Inhibition of the function of the p-glycoprotein
effectiveness of chemotherapy drugs in multiply resistant cancer cells (p-glycoprotein): increase the effectiveness of chemotherapy drugs in multiply resistant cancer cells; also recorded: increased effectiveness of chemotherapeutic compounds in multiply resistant cancer cells
interaction with p-glycoprotein membrane structure (p-glycoprotein; molecular probe): direct interaction of DIM with the p-glycoprotein membrane structure
CYP enzyme induction (cultured liver cells): powerful CYP enzyme-inducer
CYP enzyme induction in colonic epithelium [4]: failed to induce CYP enzymes in colonic epithelium
detection in gastric contents and stomach tissue [1]: detected in gastric contents and stomach tissue

CYP enzyme induction, Densitometry Units (CYP 1A1/1A2 and 1B1; I3C high 25 mg/kg/day, in feed 3 days): 5.1 Densitometry Units
CYP enzyme induction, Densitometry Units (CYP 1A1/1A2 and 1B1; I3C low 5 mg/kg/day, in feed 3 days): 0 Densitometry Units
SMILES: OCc1c[nH]c2ccccc12 [I3C, indole-3-carbinol]
2-hydroxylation of estradiol [7]: increase the 2-hydroxylation of estradiol
loss of the original I3C ([8]; aging conditions simulating a one month period, 43800 min): approximately 50%
stability ([8]; heat, light, moisture, or acidic environments): unstable and subject to spontaneous breakdown
hepatic and intestinal levels of CYP 1A1/1A2 enzyme (CYP 1A1/1A2 [9]): increased
minimum dose ([10]; I3C dietary supplement): 300 mg per person per day
shift of estrogen metabolism [10]: beneficially shift estrogen metabolism to favor 20 H estrone
shift of estrogen metabolism ([10]; listed as indole-3-carbinol): successful in shifting estrogen metabolism to favor 20 H estrone
2-hydroxylation of estradiol ([10]; humans): increase the 2-hydroxylation of estradiol
hepatic and intestinal levels of CYP 1A1/1A2 enzyme (CYP 1A1/1A2 [11]): increased
CYP enzyme induction in colonic epithelium [4]: powerful inductive activity

SMILES: Clc1cc2c(cc1Cl)Oc1cc(Cl)c(Cl)cc1O2 [TCDD, 2,3,7,8-Tetrachlorodibenzo-P-Dioxin]
CYP enzyme induction, Densitometry Units (CYP 1A1/1A2 and 1B1; positive control, by gavage): 251.7 Densitometry Units

SMILES: COc1ccc(-c2cc(=O)c3c(OC)c(OC)c(OC)c(OC)c3o2)cc1 [Tangeretin, 5,6,7,8,4'-pentamethoxyflavone]
CYP induction (CYP; dietary intake): associated with CYP induction

SMILES: O=c1cc(-c2ccccc2)oc2cc(O)cc(O)c12 [chrysin, 5,7-Dihydroxyflavone, reference compound]
CYP-related effects in rat livers (CYP; two weeks oral intake at 300 mg/kg of body weight): no CYP-related effects were noted in rat livers
solubility [6, 12]: 50 µg/mL (≈ 197 µM)
solubility [6, 13]: 0.7 µg/mL (≈ 2.75 µM)
